Assay [1] has as its system KCNQ channels. The assay can be described thus: Thallium flux assay for KCNQ channel openers. In kind it is cell-based. As to conditions: HEK-293 cells stably transfected with a KCNQ family member; for Min conc. response: minimal active concentration: lowest concentration giving signal >= 4 SD of negative controls; for EC50: thallium flux, 10 point concentration series. Here is the method: Thallium Flux Assay for KCNQ Channel Openers.
The thallium assay is a modification of that published by Weaver and is referenced in its entirety (Weaver, C. D. WO 02/31508, 2002).
Approximately 20,000 cells/well of an HEK-293 cell line stably transfected with one of the members of the KCNQ family were plated into clear-bottom, black-walled, poly-D-lysine coated, 384 well assay plates in 20 μl/well of low chloride plating medium. Low chloride plating medium was composed of the following: sodium gluconate, 109 mM; potassium gluconate, 5.4 mM; hemi-calcium gluconate, 3.6 mM; magnesium sulfate, 0.8 mM; sodium bicarbonate, 26.2 mM; sodium phosphate monobasic, 1.2 mM; glutamine, 2 mM; glucose, 5 mM; 4-(2-hydroxyethyl)-1-piperazineethanesulfonic acid (HEPES) (pH 7.3) 10 mM, MEM vitamin solution (10× concentration of vitamins, Gibco/LifeTechnologies 11120-052) and MEM amino acid solution (1× concentration of amino acids, Gibco/LifeTechnologies 11130-051).
Following overnight incubation in a 5% CO2 incubator at 37° C., the cells in the plates were loaded with 20 μl/well of a dye loading solution containing the commercially available thallium-sensitive fluorescent dye BTC-AM, the acetomethoxy ester of BTC (see U.S. Pat. No. 5,501,980) (2 μM) and pluronic acid F-127 (Molecular Probes P 6867) (0.02% w/v) in chloride free assay buffer. Chloride free assay buffer was composed of the following: sodium gluconate, 140 mM; potassium gluconate, 2.5 mM; hemi-calcium gluconate, 6 mM; hemi-magnesium gluconate, 2 mM; glucose, 5 mM; HEPES (pH 7.3), 10 mM.
Following incubation in the dye loading solution for from 45-90 min at room temperature, the dye loading solution was removed by aspiration and replaced with 40 μl/well of chloride free assay buffer.
Prior to addition to cell plates, test compound and standard compounds were dissolved in DMSO to 3 mM concentration. Compounds were then diluted from the 3 mM stock to 100-fold over the final assay concentration in DMSO. Finally, compounds in DMSO were diluted from 100-fold over the final assay concentration to 5-fold over the final assay concentration in chloride free assay buffer.
Ten μl/well of compounds at 5-fold over the final assay concentration were then added to the cell plates. This represents a 1:5 dilution, yielding the final test concentration. The wells used for test compounds were A1-P20. Wells A21-P22 contained a standard opener and a maximally efficacious concentration (positive control). Wells A23-P24 contained chloride free assay buffer containing 1% DMSO (negative control).
Following addition of test compounds, the plates were loaded onto the Molecular Devices FLIPR. The 488 nm line of the argon laser was used to excite the BTC and the emission filter was a 540(+/−30) nm. Images were collected at 1 Hz. Ten seconds of baseline were collected and then the FLIPR was used to add 13 μl/well of a stimulus buffer composed of 7.5 mM Tl2SO4 in chloride free assay buffer. Images were collected for an additional 60 seconds.
For data analysis, the amplitude of the average of the negative controls was subtracted from all wells. The amplitudes of the test compounds were then compared to the value of four standard deviations of the negative control wells. The lowest concentration of a test compound sufficient to generate a signal amplitude greater than or equal to four standard deviations from the amplitude of the negative controls was defined as the minimal active concentration.
For generating EC50 values, compounds were serially diluted in 1:3 volume increments to produce a 10 point concentration series. EC50 values were calculated by fitting the resulting amplitudes to a single-site logistic equation. EC50 was defined as the concentration of test compound required to yield 50% of the maximal response. Maximal response (Maximal opening) was the largest signal amplitude divided by the negative control amplitude generated by any concentration of a test compound. […]

In assay [2] the target is T1, mKCNQ2 channels (Mus musculus, UniProt Q9Z351).
T1 construct: expressed in transfected cells
The assay can be described thus: KCNQ whole-cell patch-clamp. As to conditions: for verified in a patch-clamp assay measuring the effect of compounds on the current of KCNQ channels: HEK 293 cells expressing mKCNQ2; for EC50: HEK 293 stable cell line expressing mKCNQ2, steady-state current at end of 600 ms step from holding potential -80 mV. Format: cell-based. Here is the method:
Examples 8 and 11 were verified in a patch-clamp assay measuring the effect of compounds on the current of KCNQ channels.
KCNQ Patch-clamp. Whole-cell patch-clamp recordings were made from an HEK 293 stable cell line expressing mKCNQ2 channels, maintained in culture for 1-2 days. Patch pipettes had initial resistances of 2.5-4 MΩ. Currents were recorded with an EPC-9 amplifier (HEKA, Lambrecht, Germany) controlled with software (Pulse, HEKA) run on a standard lab PC. Series resistance compensation was used during current recording, and set at 80%. The series resistance (R) and cell capacitance (C) were determined electronically by subtracting the capacitive currents at the onset and offset of a 5 mV voltage step. The cancellation of whole-cell capacitive transients was virtually complete in all cells. Analog current signals were low-pass filtered at 2.9 kHz using a four-pole Bessel filter −3 dB) and stored on a local network server computer at a sampling rate of 1.5 kHz. All recordings were performed at room temperature (20-22° C.). The pipette solution contained (mM):KCl, 150; CaCl2, 2.5; EGTA, 5; MgCl2, 1; HEPES, 10; pH to 7.3 with KOH, and Osmolality of 290-300 mOsm. The extracellular solution contained (mM): NaCl, 140; KCl, 2.5; CaCl2, 2.5; MgCl2, 1; glucose, 10; HEPES, 10; pH to 7.3 with NaOH, and Osmolality of […].
Concentration response data were generated by measuring the difference in the steady-state amplitude of current in the presence of compound at the end of a 600 ms voltage-clamp step from a holding potential of −80 mV. The concentration-response data were fitted with Hill-type equations: I=Imax/(1+EC50/[A]^nH), where I is the steady-state current at a given concentration of agonist [A]; and Imax, EC50 and nH are parameters estimated from the curve fit. In some cases the concentration-response data were fitted with equations consisting of the sum of two Hill-type components. Current-voltage (I/V) relationships for agonist-evoked currents were obtained by performing 600 ms voltage steps (−110 mV to +40 mV) in the absence and presence of agonist.
Background: In patch-clamp work, channel activity is measured electrically.

8 compounds from patent US6933308B2 (Bristol-Myers Squibb Company, priority 2002, dated 2005) can be followed below.

Broadly, the EC50 is the concentration at which the effect is half-maximal.

The structures appear in SMILES notation.

In assay [1], `CC(NC(=O)c1sc(CCN2CCOCC2)nc1C(F)(F)F)c1cccc(-c2cccnc2)c1` (stereo not shown) [Example 8] displayed a Min conc. response of 10 µM and a half-maximal effective concentration (EC50) of 1000 to 20000 nM. The “verified in a patch-clamp assay measuring the effect of compounds on the current of KCNQ channels” value in assay [2] is given as “verified”.

On to `C[C@H](NC(=O)c1sc(CCN(C)Cc2ccco2)nc1C(F)(F)F)c1cccc(N2CCOCC2)c1` [Example 11, 2-[2-[(2-furanylmethyl)methylamino]ethyl]-N-[1-[3-(4-morpholinyl)phenyl]ethyl]-4-(trifluoromethyl)-5-thiazolecarboxamide], for which, in assay [1], the Min conc. response came out at 30 µM and the EC50 was 1000 to 20000 nM. Further, the “verified in a patch-clamp assay measuring the effect of compounds on the current of KCNQ channels” value in assay [2] is “verified”.

Consider `CCN(CC)CCc1nc(C(F)(F)F)c(C(=O)NC(C)c2cccc(OC(F)(F)F)c2)s1` (stereo not shown) [Example 15], for which the Min conc. response in assay [1] was determined as 0.3 µM. The results for the EC50 in assay [1] and in assay [2] were 50 to 1000 nM and 3560 nM, respectively.

With `CC(NC(=O)c1sc(CCN2CCSCC2)nc1C(F)(F)F)c1cccc(C(F)(F)F)c1` (stereo not shown) [Example 18, 2-[2-(4-thiomorpholinyl)ethyl]-4-(trifluoromethyl)-N-[1-[3-(trifluoromethyl)phenyl]ethyl]-5-thiazolecarboxamide], in assay [1], the Min conc. response was 3 µM and the EC50 fell in the range of 50 to 1000 nM. The EC50 in assay [2] worked out at 1230 nM.

`CC(NC(=O)c1sc(C(O)CN2CCCC2)nc1C(F)(F)F)c1cccc(N(C)C)c1` (stereo not shown) [Example 58, N-[1-[3-(dimethylamino)phenyl]ethyl]-2-[1-hydroxy-2-(1-pyrrolidinyl)ethyl]-4-(trifluoromethyl)-5-thiazolecarboxamide] had a Min conc. response in assay [1] of 0.3 µM.

The compound `C[C@H](NC(=O)c1sc(C(O)CN2CCCC2)nc1C(F)(F)F)c1cccc(N2CCOCC2)c1` (stereo partly drawn) [Example 59, 2-[1-hydroxy-2-(1-pyrrolidinyl)ethyl]-N-[(1S)-1-[3-(4-morpholinyl)phenyl]ethyl]-4-(trifluoromethyl)-5-thiazolecarboxamide] returned a Min conc. response in assay [1] of 30 µM.

Consider `CCCN(CC1CC1)CC(O)c1nc(C(F)(F)F)c(C(=O)NC(C)c2cccc(C(F)(F)F)c2)s1` (stereo not shown) [Example 60, 2-[2-[(cyclopropylmethyl)propylamino]-1-hydroxyethyl]-4-(trifluoromethyl)-N-[1-[3-(trifluoromethyl)phenyl]ethyl]-5-thiazolecarboxamide], for which the Min conc. response in assay [1] stood at 3 µM.

Consider `CC(=O)N1CCN(CC(O)c2nc(C(F)(F)F)c(C(=O)NC(C)c3cccc(C(F)(F)F)c3)s2)CC1` (stereo not shown) [Example 61, 2-[2-(4-acetyl-1-piperazinyl)-1-hydroxyethyl]-4-(trifluoromethyl)-N-[1-[3-(trifluoromethyl)phenyl]ethyl]-5-thiazolecarboxamide], for which, in assay [1], the Min conc. response came out at 10 µM.
